Data taken from patent US20260159536A1, “AKR1C3-ACTIVATED DNA ALKYLATING AGENT, AND MEDICAL APPLICATION THEREOF” (ASCENTAWITS PHARMACEUTICALS, LTD., priority 2021, published 2026).

Key:
H460 cancer cells = test: H460 proliferation in the presence or absence of AKR1C3 inhibitor AST-3021 (Alamar Blue); type: cell-based, human
Procedure: The tested compound was then added. The compound was dissolved in 100% DMSO at 200 times of the desired final test concentration. When the medicament was added, the compound was further diluted to 4 times of the desired final test concentration by using the complete medium. 50 μL of aliquots of the compound with specific concentration were added to the microwells containing 150 μL of medium, and then the final medicament concentration was obtained. […] The medicament was then washed. […] After the incubation was finished, the Alamar Blue was used to analyze and quantify the living cells.

SNU886 = test: Cytotoxicity on hepatocellular carcinoma cell line SNU886; type: cell-based; conditions: SNU-886
Procedure: (§1) If not otherwise specified, IC50 values were measured by the following experimental methods:
(§2) a) Cells were plated for 24 hours, and then the compounds acted singly. 99 μL of growth medium was supplemented per well, and then 1 μL of 200× compound was added, gently shaken to ensure uniform mixing, and then placed in a 37° C., 5% CO2 incubator.
(§3) b) The cell plate was placed in the incubator for 72 hours.
(§4) b) 100 μL of CTG reagent (CelltiterGlo kit) was added to each well, the plate was placed in a rapid oscillator and shaken for 2 minutes, and then placed at room temperature for 30 minutes away from light.
(§5) The IC50 was calculated using GraphPad Prism 8 software and the IC50 (half inhibitory concentration) of the compounds was obtained using the following non-linear fitting formula: […]
(§6) Using the same experimental methods as described above, Compounds A, B and C were further tested for cytotoxicity against different hepatocellular carcinoma (HCC) cell lines SNU354, SNU886, MHCC97H and huH-1, and the results were shown in Table 2 below: […]

huH-1 = test: Cytotoxicity on hepatocellular carcinoma cell line huH-1; type: cell-based; conditions: Homo sapiens, HuH-1
Procedure: as §1, §2, §3, §4, §5, §6

H460 cells = test: Inhibition of H460 cancer cell proliferation (CTG, 72 h); type: cell-based; conditions: Homo sapiens, NCI-H460
Procedure: as §1
c) The cell suspension was added to 96-well plate with 100 μL per well and 2000 cells/well of cell density.
as §2, §3, §4
c) The chemiluminescence signal value was read with Envision instrument.
as §5

SNU354 = test: Cytotoxicity on hepatocellular carcinoma cell line SNU354; type: cell-based; conditions: Homo sapiens, SNU-354
Procedure: as §1, §2, §3, §4, §5, §6

MHCC97H = test: Cytotoxicity on hepatocellular carcinoma cell line MHCC97H; type: cell-based; conditions: Homo sapiens
Procedure: as §1, §2, §3, §4, §5, §6

[1] = test system: human liver cancer HepG2 cells; test: In vivo pharmacodynamics, liver cancer HepG2 CDX model; design: species or system BALB/c nude mice
Procedure: Experiment Instruction: BALB/c nude mice were subcutaneously inoculated with human liver cancer HepG2 cells to establish a subcutaneous transplantation tumor model of human liver cancer. […] The efficacy was evaluated according to the relative tumor inhibition rate TGI (%), and the safety was evaluated according to the change in body weight and the death of the animals.

[2] = test system: human liver cancer LI6652; test: In vivo pharmacodynamics, liver cancer LI6652 subcutaneous xenograft PDX model; design: species or system BALB/c nude mice; conditions: 30 mg/kg p.o. QDx21; Day 28
[3] = test system: HuPrime model LI6664 human liver cancer; test: In vivo pharmacodynamics, liver cancer LI6664 PDX model; design: species or system BALB/c nude mice; conditions: for Size of tumor volume: Group2, Sorafenib 30 mg/kg
Procedure: Experiment Instruction: BALB/c nude mice were subcutaneously inoculated with HuPrime® model LI6664 tumor blocks to establish a subcutaneous transplantation tumor model of human liver cancer. […] Among them, 7.5% anhydrous ethanol+7.5% polyoxyethylene (35) castor oil+85% glucose injection D5W (pH 7.4) vehicle control group was administered by tail vein once a week for 3 consecutive weeks; test drug AST-3424 0.3 mg/kg and 1 mg/kg groups were administered by tail vein injection once a day for 5 consecutive days, followed by 2 days off, followed by 2 weeks off, and then continuously administered for 5 consecutive days; the test drug AST-3424 1.25 mg/kg group was administered by tail vein injection once a week for 2 consecutive weeks, followed by one week off, and then continuously administered for 2 consecutive weeks, Compound A 0.5 mg/kg, 1.5 mg/kg, and 4.5 mg/kg groups were administered by tail vein injection once a week for three consecutive weeks, followed by 1 week off, and then administered for three consecutive weeks. […] The efficacy was evaluated according to the relative tumor inhibition rate TGI (%), and the safety was evaluated according to the change in body weight and the death of the animals.

[4] = test system: HuPrime model LI1005 human liver cancer; test: In vivo pharmacodynamics, liver cancer LI1005 PDX model; design: species or system BALB/c nude mice; conditions: for Tumor volume: 30 mg/kg p.o.
[5] = test system: HuPrime model LI6280 human liver cancer; test: In vivo pharmacodynamics, liver cancer LI6280 PDX model; design: species or system BALB/c nude mice; conditions: for Tumor volume: 30 mg/kg p.o.
Procedure: Experiment Instruction: BALB/c nude mice were subcutaneously inoculated with HuPrime® model LI6280 tumour blocks to establish a subcutaneous transplantation tumour model of human liver cancer. […] The efficacy was evaluated according to the relative tumor inhibition rate TGI (%), and the safety was evaluated according to the change in body weight and the death of the animals.

[6] = test system: HuPrime model LI6643 human liver cancer; test: In vivo pharmacodynamics, liver cancer LI6643 PDX model (Compound A, Sorafenib, AST-3424; section 4.7); design: species or system BALB/c nude mice; conditions: for Tumor volume: 30 mg/kg p.o.
Procedure: Experiment Instruction: BALB/c nude mice were subcutaneously inoculated with HuPrime® model LI6643 tumor blocks to establish a subcutaneous grafted tumor model of human liver cancer. […] The efficacy was evaluated according to the relative tumor inhibition rate TGI (%), and the safety was evaluated according to the change in body weight and the death of the animals.

[7] = test system: human liver cancer LI6652; test: In vivo pharmacodynamics, liver cancer LI6652 subcutaneous xenograft PDX model; design: species or system BALB/c nude mice; conditions: for Tumor volume: 30 mg/kg p.o.
Procedure: The pharmacodynamic analysis of each group in liver cancer LI6652 model was performed on Day 31 after administration, and the results were shown in Table 12.

[8] = test system: HuPrime model LI6643 human liver cancer; test: In vivo pharmacodynamics, liver cancer LI6643 PDX model (Compound A, Sorafenib; section 4.8); design: species or system BALB/c nude mice; conditions: for Tumor volume: 20-30 mg/kg p.o.
Procedure: Experiment Instruction: BALB/c nude mice were subcutaneously inoculated with HuPrime® model LI6643 tumor blocks to establish a subcutaneous transplantation tumor model of human liver cancer. […] The efficacy was evaluated according to the relative tumor inhibition rate TGI (%), and the safety was evaluated according to the change in body weight and the death of the animals.

[9] = 30 mg/kg, QDx21 Days, p.o., Day 53
[10] = 20-30 mg/kg p.o. QD (30 mg/kg day0-day11, 20 mg/kg day 12-day20), Day 35

O=[N+]([O-])c1ccc([C@H](OP(=O)(N2CC2)N2CC2)C(F)(F)F)cc1Oc1ccc(-c2ccc(F)cc2)c(F)c1 [B]
IC50 (H460 cancer cells; Homo sapiens, NCI-H460, H460, 2 hours exposure, no AKR1C3 inhibitor, read-out: IC50 Without the addition of AST-3021): 3.73 nM | Fold (H460 cancer cells; IC50 with AST-3021 over IC50 without): 513.28 | IC50 (SNU886): 378 nM | IC50 (huH-1): 258 nM | IC50 (H460 cells): 8.77 nM | IC50 (SNU354): 754 nM | IC50 (MHCC97H): 242 nM

CNC(=O)c1cc(Oc2ccc(NC(=O)Nc3ccc(Cl)c(C(F)(F)F)c3)cc2)ccn1 [Sorafenib, reference compound]
weight loss ([1]; 30 mg/kg p.o.): caused significant weight loss | Tumor volume ([1]; 30 mg/kg p.o., Day 19): 189.76 mm^3 | Tumor volume ([1]; 30 mg/kg p.o., Day 22): 291.62 mm^3 | Tumor volume ([1]; 30 mg/kg p.o., Day 24): 311.64 mm^3 | Tumor volume ([1]; 30 mg/kg p.o., Day 27): 340.46 mm^3 | Tumor volume ([1]; 30 mg/kg p.o., Day 31): 398.84 mm^3 | Tumor volume ([1]; 30 mg/kg p.o., Day 36): 491.06 mm^3 | Tumor volume ([1]; 30 mg/kg p.o., Day 39): 509.41 mm^3 | Tumor volume ([1]; 30 mg/kg p.o., Day 42): 657.51 mm^3 | Tumor volume ([1]; 30 mg/kg p.o., Day 46): 816.63 mm^3 | Tumor volume ([1]; 30 mg/kg p.o., Day 49): 1012.20 mm^3 | Tumor volume ([1]; 30 mg/kg p.o., Day 53): 1484.78 mm^3 | T/C (%) [1, 9]: 65.95% | TGI (%) [1, 9]: 34.05% | Tumor volume (x ± S) ([1]; 30 mg/kg, QDx21 Days, p.o., Day 53, in mm³ (unit assumed)): 1484.78 ± 304.89 | Tumor volume (x ± S) [2]: 315.93 ± 81.35 | Size of tumor volume ([3]; Day 0): 107.93 mm^3 | Size of tumor volume ([3]; Day 4): 170.15 mm^3 | Size of tumor volume ([3]; Day 7): 197.93 mm^3 | Size of tumor volume ([3]; Day 11): 218.34 mm^3 | Size of tumor volume ([3]; Day 14): 321.83 mm^3 | Size of tumor volume ([3]; Day 18): 391.52 mm^3 | Size of tumor volume ([3]; Day 21): 481.85 mm^3 | Size of tumor volume ([3]; Day 25): 730.68 mm^3 | Size of tumor volume ([3]; Day 28): 1003.42 mm^3 | Size of tumor volume ([3]; Day 32): 1333.07 mm^3 | Size of tumor volume ([3]; Day 35): 1595.00 mm^3 | Size of tumor volume ([3]; Day 39): 2102.94 mm^3 | Size of tumor volume ([3]; Day 42): 2729.04 mm^3 | Size of tumor volume ([3]; Day 46): 2892.15 mm^3 | Size of tumor volume ([3]; Day 49): 2600.00 mm^3 | T/C (%) ([3]; Sorafenib 30 mg/kg, Day 28): 71.01% | TGI (%) ([3]; Sorafenib 30 mg/kg, Day 28): 28.99% | Tumor volume (x ± S) ([3]; Sorafenib 30 mg/kg, Day 28, mean ± standard error, in mm³ (unit assumed)): 1003.42 ± 128.88 | weight loss ([3]; treatment period, tested doses): weight loss in individual mice | T/C (%) ([4]; 30 mg/kg p.o. QDx21, Day 35): 28.26% | TGI (%) ([4]; 30 mg/kg p.o. QDx21, Day 35): 71.74% | Tumor volume (x ± S) ([4]; 30 mg/kg p.o. QDx21, Day 35, in mm³ (unit assumed)): 294.09 ± 60.93 | Tumor volume ([4]; Day 0): 102.89 mm^3 | Tumor volume ([4]; Day 3): 121.64 mm^3 | Tumor volume ([4]; Day 7): 136.21 mm^3 | Tumor volume ([4]; Day 10): 136.21 mm^3 | Tumor volume ([4]; Day 14): 136.89 mm^3 | Tumor volume ([4]; Day 17): 140.09 mm^3 | Tumor volume ([4]; Day 21): 142.56 mm^3 | Tumor volume ([4]; Day 24): 161.17 mm^3 | Tumor volume ([4]; Day 28): 200.97 mm^3 | Tumor volume ([4]; Day 31): 227.65 mm^3 | Tumor volume ([4]; Day 35): 294.09 mm^3 | T/C (%) ([5]; 30 mg/kg p.o. QDx21, Day 17): 49.65% | TGI (%) ([5]; 30 mg/kg p.o. QDx21, Day 17): 50.35% | Tumor volume (x ± S) ([5]; 30 mg/kg p.o. QDx21, Day 17, in mm³ (unit assumed)): 1076.45 ± 230.21 | Tumor volume ([5]; Day 0): 103.93 mm^3 | Tumor volume ([5]; Day 3): 168.82 mm^3 | Tumor volume ([5]; Day 7): 269.83 mm^3 | Tumor volume ([5]; Day 10): 439.29 mm^3 | Tumor volume ([5]; Day 14): 731.99 mm^3 | Tumor volume ([5]; Day 17): 1076.45 mm^3 | Tumor volume ([5]; Day 21): 1241.19 mm^3 | Tumor volume ([5]; Day 24): 1504.89 mm^3 | Tumor volume ([5]; Day 28): 2218.52 mm^3 | Tumor volume ([5]; Day 31): 2313.01 mm^3 | T/C (%) ([6]; 30 mg/kg p.o. QDx21, Day 21): 37.88% | TGI (%) ([6]; 30 mg/kg p.o. QDx21, Day 21): 62.12% | Tumor volume (x ± S) ([6]; 30 mg/kg p.o. QDx21, Day 21, in mm³): 214.75 ± 31.53 | Tumor volume ([6]; Day 0): 124.67 mm^3 | Tumor volume ([6]; Day 3): 170.03 mm^3 | Tumor volume ([6]; Day 7): 185.13 mm^3 | Tumor volume ([6]; Day 10): 193.95 mm^3 | Tumor volume ([6]; Day 14): 189.87 mm^3 | Tumor volume ([6]; Day 17): 171.25 mm^3 | Tumor volume ([6]; Day 21): 214.75 mm^3 | Tumor volume ([6]; Day 24): 238.48 mm^3 | Tumor volume ([6]; Day 28): 309.08 mm^3 | T/C (%) ([7]; 30 mg/kg p.o. QDx21, Day 28): 17.04% | TGI (%) ([7]; 30 mg/kg p.o. QDx21, Day 28): 82.96% | Tumor volume ([7]; Day 0): 125.84 mm^3 | Tumor volume ([7]; Day 3): 146.95 mm^3 | Tumor volume ([7]; Day 7): 196.51 mm^3 | Tumor volume ([7]; Day 10): 212.41 mm^3 | Tumor volume ([7]; Day 14): 217.19 mm^3 | Tumor volume ([7]; Day 17): 191.72 mm^3 | Tumor volume ([7]; Day 21): 178.69 mm^3 | Tumor volume ([7]; Day 24): 209.42 mm^3 | Tumor volume ([7]; Day 28): 315.93 mm^3 | Tumor volume ([7]; Day 31): 441.67 mm^3 | T/C (%) [8, 10]: 21.81% | Tumor volume (x ± S) [8, 10]: 392.20 ± 64.05 | Tumor volume ([8]; Day 0): 126.16 mm^3 | Tumor volume ([8]; Day 4): 163.51 mm^3 | Tumor volume ([8]; Day 7): 205.85 mm^3 | Tumor volume ([8]; Day 11): 235.50 mm^3 | Tumor volume ([8]; Day 14): 279.42 mm^3 | Tumor volume ([8]; Day 18): 291.41 mm^3 | Tumor volume ([8]; Day 21): 287.76 mm^3 | Tumor volume ([8]; Day 25): 326.85 mm^3 | Tumor volume ([8]; Day 28): 346.56 mm^3 | Tumor volume ([8]; Day 32): 385.09 mm^3 | Tumor volume ([8]; Day 35): 392.20 mm^3 | Tumor volume ([8]; Day 39): 431.87 mm^3 | Tumor volume ([8]; Day 42): 451.48 mm^3 | Tumor volume ([8]; Day 46): 521.44 mm^3 | Tumor volume ([8]; Day 49): 585.72 mm^3 | Tumor volume ([8]; Day 53): 622.46 mm^3
